Data taken from ChEMBL document CHEMBL3991601, “The target landscape of clinical kinase drugs” (Science, 2017).
Activity calls are given as the source filed them. Rule as the data show it, for most assays here: actives have a measured Kd and inactives only a lower limit.

Key:
[1] = molecular target: T1, Serine/threonine-protein kinase TAO3 (Homo sapiens, UniProt Q9H2K8)
T1 sequence (Q9H2K8 whole entry): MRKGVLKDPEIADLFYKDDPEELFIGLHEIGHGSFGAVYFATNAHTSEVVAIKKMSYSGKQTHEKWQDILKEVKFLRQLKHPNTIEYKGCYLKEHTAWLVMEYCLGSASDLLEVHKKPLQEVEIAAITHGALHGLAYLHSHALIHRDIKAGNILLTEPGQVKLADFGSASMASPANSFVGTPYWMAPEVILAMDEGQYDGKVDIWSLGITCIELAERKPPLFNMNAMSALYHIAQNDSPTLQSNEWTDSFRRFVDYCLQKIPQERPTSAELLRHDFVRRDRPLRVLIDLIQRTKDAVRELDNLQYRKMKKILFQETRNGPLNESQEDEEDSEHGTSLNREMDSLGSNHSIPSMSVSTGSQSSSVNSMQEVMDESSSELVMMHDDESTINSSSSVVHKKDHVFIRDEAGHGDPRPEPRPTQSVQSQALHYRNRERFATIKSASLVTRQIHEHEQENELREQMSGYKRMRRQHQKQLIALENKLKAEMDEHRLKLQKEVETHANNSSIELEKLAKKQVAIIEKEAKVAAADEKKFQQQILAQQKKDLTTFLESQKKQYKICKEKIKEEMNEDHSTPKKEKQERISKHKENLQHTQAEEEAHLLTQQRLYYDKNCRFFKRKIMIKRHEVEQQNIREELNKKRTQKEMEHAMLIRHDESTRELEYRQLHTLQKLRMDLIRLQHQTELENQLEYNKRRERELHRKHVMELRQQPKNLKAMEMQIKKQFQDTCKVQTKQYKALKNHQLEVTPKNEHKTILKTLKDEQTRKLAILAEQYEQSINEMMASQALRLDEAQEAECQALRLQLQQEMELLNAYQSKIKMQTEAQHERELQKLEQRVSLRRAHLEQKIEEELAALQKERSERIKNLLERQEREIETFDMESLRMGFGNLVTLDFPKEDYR

[2] = molecular target: T2, Interleukin-1 receptor-associated kinase 3 (Homo sapiens, UniProt Q9Y616)
T2 sequence (Q9Y616 whole entry): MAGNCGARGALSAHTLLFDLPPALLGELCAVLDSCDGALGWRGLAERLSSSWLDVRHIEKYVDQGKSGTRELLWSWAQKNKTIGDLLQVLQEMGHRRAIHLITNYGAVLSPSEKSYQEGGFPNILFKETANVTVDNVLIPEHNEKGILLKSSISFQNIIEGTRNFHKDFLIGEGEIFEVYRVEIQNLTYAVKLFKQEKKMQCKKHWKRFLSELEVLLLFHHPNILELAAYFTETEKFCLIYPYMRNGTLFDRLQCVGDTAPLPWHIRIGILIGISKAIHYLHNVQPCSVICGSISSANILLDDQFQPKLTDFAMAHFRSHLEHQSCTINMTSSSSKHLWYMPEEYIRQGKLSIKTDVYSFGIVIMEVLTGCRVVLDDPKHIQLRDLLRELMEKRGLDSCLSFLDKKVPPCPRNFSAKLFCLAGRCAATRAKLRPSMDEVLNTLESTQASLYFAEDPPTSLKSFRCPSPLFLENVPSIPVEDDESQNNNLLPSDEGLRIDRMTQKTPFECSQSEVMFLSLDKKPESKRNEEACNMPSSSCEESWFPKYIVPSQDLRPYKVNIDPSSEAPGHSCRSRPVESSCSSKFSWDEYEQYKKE

[3] = molecular target: T3, Bifunctional phosphoribosylaminoimidazole carboxylase/phosphoribosylaminoimidazole succinocarboxamide synthetase (Homo sapiens, UniProt P22234)
T3 sequence (P22234 whole entry): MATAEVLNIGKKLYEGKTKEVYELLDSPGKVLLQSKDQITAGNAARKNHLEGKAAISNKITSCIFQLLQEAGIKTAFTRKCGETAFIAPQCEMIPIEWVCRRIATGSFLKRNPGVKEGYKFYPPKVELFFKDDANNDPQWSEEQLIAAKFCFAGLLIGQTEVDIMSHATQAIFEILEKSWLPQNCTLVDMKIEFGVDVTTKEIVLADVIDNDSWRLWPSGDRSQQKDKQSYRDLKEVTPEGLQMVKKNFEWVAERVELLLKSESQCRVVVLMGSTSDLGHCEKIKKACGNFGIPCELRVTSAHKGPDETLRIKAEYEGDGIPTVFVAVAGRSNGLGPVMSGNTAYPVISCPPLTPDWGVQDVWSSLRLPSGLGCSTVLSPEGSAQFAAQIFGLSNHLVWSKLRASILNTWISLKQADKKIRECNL

[4] = molecular target: Mitogen-activated protein kinase kinase kinase kinase 1 (Homo sapiens, UniProt Q92918)
Chain of Mitogen-activated protein kinase kinase kinase kinase 1 (Q92918 whole entry): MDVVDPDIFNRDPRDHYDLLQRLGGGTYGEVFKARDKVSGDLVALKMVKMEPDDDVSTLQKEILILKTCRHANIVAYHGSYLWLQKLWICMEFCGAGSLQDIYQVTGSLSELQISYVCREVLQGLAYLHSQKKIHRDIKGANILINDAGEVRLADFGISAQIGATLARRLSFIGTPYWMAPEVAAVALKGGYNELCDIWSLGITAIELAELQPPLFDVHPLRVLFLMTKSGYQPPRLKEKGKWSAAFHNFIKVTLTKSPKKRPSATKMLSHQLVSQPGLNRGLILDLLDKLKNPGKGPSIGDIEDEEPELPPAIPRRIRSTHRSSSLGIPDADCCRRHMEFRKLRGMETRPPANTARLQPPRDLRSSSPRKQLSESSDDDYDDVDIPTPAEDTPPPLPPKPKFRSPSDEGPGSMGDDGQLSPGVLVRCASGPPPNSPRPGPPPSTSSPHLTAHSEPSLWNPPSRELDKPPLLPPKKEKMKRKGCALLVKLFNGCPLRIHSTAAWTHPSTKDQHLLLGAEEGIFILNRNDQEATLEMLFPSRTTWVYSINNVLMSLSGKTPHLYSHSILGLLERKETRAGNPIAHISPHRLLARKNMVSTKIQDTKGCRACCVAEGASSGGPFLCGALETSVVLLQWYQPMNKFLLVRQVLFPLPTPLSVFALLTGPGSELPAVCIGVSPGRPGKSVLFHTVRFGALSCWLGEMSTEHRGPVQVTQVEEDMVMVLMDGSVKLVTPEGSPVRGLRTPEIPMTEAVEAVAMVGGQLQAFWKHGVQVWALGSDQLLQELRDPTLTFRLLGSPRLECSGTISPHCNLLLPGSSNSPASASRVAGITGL

[5] = molecular target: T4, ATP-dependent 6-phosphofructokinase, platelet type (Homo sapiens, UniProt Q01813)
T4 sequence (Q01813 whole entry): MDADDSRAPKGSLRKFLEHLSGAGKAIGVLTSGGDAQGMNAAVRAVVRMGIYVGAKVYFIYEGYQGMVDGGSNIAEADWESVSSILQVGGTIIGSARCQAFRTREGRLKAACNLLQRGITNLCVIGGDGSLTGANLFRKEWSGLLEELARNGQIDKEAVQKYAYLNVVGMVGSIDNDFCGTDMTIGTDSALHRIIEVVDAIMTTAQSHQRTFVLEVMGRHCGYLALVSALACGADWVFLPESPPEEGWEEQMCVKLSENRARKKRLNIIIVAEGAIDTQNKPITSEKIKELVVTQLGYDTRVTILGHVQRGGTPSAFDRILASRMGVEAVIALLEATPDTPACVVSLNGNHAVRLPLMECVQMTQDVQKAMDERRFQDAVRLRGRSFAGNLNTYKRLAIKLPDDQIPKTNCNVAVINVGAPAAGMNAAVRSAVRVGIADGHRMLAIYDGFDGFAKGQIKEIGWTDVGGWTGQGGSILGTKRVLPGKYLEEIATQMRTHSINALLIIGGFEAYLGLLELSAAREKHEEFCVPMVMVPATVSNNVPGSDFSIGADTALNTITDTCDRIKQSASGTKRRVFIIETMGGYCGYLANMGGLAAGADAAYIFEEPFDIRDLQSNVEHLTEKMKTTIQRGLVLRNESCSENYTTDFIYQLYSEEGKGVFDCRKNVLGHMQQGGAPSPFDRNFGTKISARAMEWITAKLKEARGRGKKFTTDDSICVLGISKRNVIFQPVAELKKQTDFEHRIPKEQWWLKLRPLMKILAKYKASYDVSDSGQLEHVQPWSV

[6] = molecular target: Eukaryotic translation initiation factor 2-alpha kinase 1 (Homo sapiens, UniProt Q9BQI3)
Chain of Eukaryotic translation initiation factor 2-alpha kinase 1 (Q9BQI3 whole entry): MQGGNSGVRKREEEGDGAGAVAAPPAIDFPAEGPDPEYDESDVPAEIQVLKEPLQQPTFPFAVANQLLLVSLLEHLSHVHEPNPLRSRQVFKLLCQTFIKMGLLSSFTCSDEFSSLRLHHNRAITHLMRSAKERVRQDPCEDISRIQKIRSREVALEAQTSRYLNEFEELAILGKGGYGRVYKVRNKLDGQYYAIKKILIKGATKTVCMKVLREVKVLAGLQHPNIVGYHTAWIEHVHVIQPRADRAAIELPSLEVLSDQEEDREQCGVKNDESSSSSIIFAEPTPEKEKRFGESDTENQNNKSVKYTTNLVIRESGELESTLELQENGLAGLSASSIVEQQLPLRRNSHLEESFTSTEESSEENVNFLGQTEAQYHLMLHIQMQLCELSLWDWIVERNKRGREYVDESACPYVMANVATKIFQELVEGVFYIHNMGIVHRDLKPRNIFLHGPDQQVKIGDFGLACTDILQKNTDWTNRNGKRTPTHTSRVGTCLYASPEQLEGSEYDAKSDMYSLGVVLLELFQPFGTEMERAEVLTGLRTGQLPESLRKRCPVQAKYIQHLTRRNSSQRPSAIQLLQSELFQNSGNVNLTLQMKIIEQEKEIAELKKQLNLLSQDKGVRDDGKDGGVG

[7] = molecular target: Glycogen synthase kinase-3 beta (Homo sapiens, UniProt P49841)
Chain of Glycogen synthase kinase-3 beta (P49841 whole entry): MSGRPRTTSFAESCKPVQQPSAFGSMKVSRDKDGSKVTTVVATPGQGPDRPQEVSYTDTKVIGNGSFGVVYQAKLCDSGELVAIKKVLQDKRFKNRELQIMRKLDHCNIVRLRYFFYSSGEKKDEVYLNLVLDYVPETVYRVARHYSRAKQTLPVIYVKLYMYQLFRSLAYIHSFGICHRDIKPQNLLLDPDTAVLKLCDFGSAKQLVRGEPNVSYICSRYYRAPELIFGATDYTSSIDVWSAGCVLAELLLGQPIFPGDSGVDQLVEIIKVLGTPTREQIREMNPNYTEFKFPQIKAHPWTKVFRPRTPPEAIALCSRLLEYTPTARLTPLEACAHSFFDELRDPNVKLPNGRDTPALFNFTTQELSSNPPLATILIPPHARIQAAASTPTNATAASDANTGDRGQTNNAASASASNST

[8] = molecular target: cAMP-dependent protein kinase catalytic subunit gamma (Homo sapiens, UniProt P22612)
Chain of cAMP-dependent protein kinase catalytic subunit gamma (P22612 whole entry): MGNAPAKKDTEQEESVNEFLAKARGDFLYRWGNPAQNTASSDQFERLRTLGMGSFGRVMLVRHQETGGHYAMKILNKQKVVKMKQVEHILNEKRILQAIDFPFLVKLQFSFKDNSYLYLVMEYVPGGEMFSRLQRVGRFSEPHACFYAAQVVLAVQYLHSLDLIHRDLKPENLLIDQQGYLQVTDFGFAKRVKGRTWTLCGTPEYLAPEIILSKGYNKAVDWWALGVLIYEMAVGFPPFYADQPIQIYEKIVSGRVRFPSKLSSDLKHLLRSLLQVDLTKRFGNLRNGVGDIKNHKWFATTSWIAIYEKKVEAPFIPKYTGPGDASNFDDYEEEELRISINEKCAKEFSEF
Also: in the data inactive means no Kd found up to 30 µM.

## NC1(c2ccc(-c3nc4ccn5c(=O)[nH]nc5c4cc3-c3ccccc3)cc2)CCC1 [MK-2206]
[1]
  Kd: > 30 µM (inactive)
[2]
  Kd: > 30 µM (inactive)
[3]
  Kd: > 30 µM (inactive)
[4]
  Kd: > 30 µM (inactive)
[5]
  Kd: > 30 µM (inactive)
[6]
  Kd: > 30 µM (inactive)
[7]
  Kd: > 30 µM (inactive)
[8]
  Kd: > 30 µM (inactive)

## CN(C[C@@H]1COCCO1)S(=O)(=O)Nc1ccc2ccc3ncc(-c4cnn(C)c4)cc3c(=O)c2c1 [MK-2461]
[1]
  Kd: > 30 µM (inactive)
[2]
  Kd: 0.502 µM (active)
[3]
  Kd: > 30 µM (inactive)
[4]
  Kd: > 30 µM (inactive)
[5]
  Kd: > 30 µM (inactive)
[6]
  Kd: > 30 µM (inactive)
[7]
  Kd: > 30 µM (inactive)
[8]
  Kd: > 30 µM (inactive)

## FC(F)(F)c1ccc(/C=C/c2nc(COc3ccc(CCCCn4ccnn4)cc3)co2)cc1 [MUBRITINIB]
[1]
  Kd: > 30 µM (inactive)
[2]
  Kd: > 30 µM (inactive)
[3]
  Kd: > 30 µM (inactive)
[4]
  Kd: > 30 µM (inactive)
[5]
  Kd: > 30 µM (inactive)
[6]
  Kd: > 30 µM (inactive)
[7]
  Kd: > 30 µM (inactive)
[8]
  Kd: > 30 µM (inactive)

## COc1ncc(-c2ccc3nccc(-c4ccnnc4)c3c2)cc1NS(=O)(=O)c1ccc(F)cc1F [OMIPALISIB]
[1]
  Kd: > 30 µM (inactive)
[2]
  Kd: 3.03 µM (active)
[3]
  Kd: > 30 µM (inactive)
[4]
  Kd: > 30 µM (inactive)
[5]
  Kd: > 30 µM (inactive)
[6]
  Kd: > 30 µM (inactive)
[7]
  Kd: > 30 µM (inactive)
[8]
  Kd: > 30 µM (inactive)

## CCCCCCCCCCCCCCCCCCOP(=O)([O-])OC1CC[N+](C)(C)CC1 [PERIFOSINE]
[1]
  Kd: > 30 µM (inactive)
[2]
  Kd: > 30 µM (inactive)
[3]
  Kd: > 30 µM (inactive)
[4]
  Kd: > 30 µM (inactive)
[5]
  Kd: > 30 µM (inactive)
[6]
  Kd: > 30 µM (inactive)
[7]
  Kd: > 30 µM (inactive)
[8]
  Kd: > 30 µM (inactive)

## Cc1nc(Nc2n[nH]c3c2CN(C(=O)N[C@H](CN(C)C)c2ccccc2)C3(C)C)c2sccc2n1 [PF-03758309]
[1]
  Kd: > 30 µM (inactive)
[2]
  Kd: > 30 µM (inactive)
[3]
  Kd: > 30 µM (inactive)
[4]
  Kd: 2.3 µM (active)
[5]
  Kd: > 30 µM (inactive)
[6]
  Kd: > 30 µM (inactive)
[7]
  Kd: 0.667 µM (active)
[8]
  Kd: 0.066 µM (active)

## Cc1cnc(NC(=O)Nc2cc(Br)c(C)cc2OC[C@@H]2CNCCO2)cn1 [RABUSERTIB]
[1]
  Kd: > 30 µM (inactive)
[2]
  Kd: > 30 µM (inactive)
[3]
  Kd: > 30 µM (inactive)
[4]
  Kd: > 30 µM (inactive)
[5]
  Kd: > 30 µM (inactive)
[6]
  Kd: > 30 µM (inactive)
[7]
  Kd: > 30 µM (inactive)
[8]
  Kd: > 30 µM (inactive)

## N#CC1(c2ccc(NC(=O)c3cccnc3NCc3ccncc3)cc2)CCCC1 [RIVOCERANIB]
[1]
  Kd: > 30 µM (inactive)
[2]
  Kd: > 30 µM (inactive)
[3]
  Kd: > 30 µM (inactive)
[4]
  Kd: > 30 µM (inactive)
[5]
  Kd: > 30 µM (inactive)
[6]
  Kd: > 30 µM (inactive)
[7]
  Kd: > 30 µM (inactive)
[8]
  Kd: > 30 µM (inactive)

## O=c1[nH]ccc2cc(OC3CCNCC3)ccc12 [SAR-407899 FREE BASE]
[1]
  Kd: > 30 µM (inactive)
[2]
  Kd: > 30 µM (inactive)
[3]
  Kd: > 30 µM (inactive)
[4]
  Kd: > 30 µM (inactive)
[5]
  Kd: > 30 µM (inactive)
[6]
  Kd: > 30 µM (inactive)
[7]
  Kd: > 30 µM (inactive)
[8]
  Kd: > 30 µM (inactive)

## CN1CCN(CCOc2cc(OC3CCOCC3)c3c(Nc4c(Cl)ccc5c4OCO5)ncnc3c2)CC1 [SARACATINIB]
[1]
  Kd: > 30 µM (inactive)
[2]
  Kd: > 30 µM (inactive)
[3]
  Kd: > 30 µM (inactive)
[4]
  Kd: > 30 µM (inactive)
[5]
  Kd: > 30 µM (inactive)
[6]
  Kd: > 30 µM (inactive)
[7]
  Kd: > 30 µM (inactive)
[8]
  Kd: > 30 µM (inactive)

## CCS(=O)(=O)c1cccc(-c2cc(C(=O)NC3CCN(C)CC3)c(C)c3[nH]c4ncc(C)cc4c23)c1 [TAK-901]
[1]
  Kd: > 30 µM (inactive)
[2]
  Kd: 0.027 µM (active)
[3]
  Kd: > 30 µM (inactive)
[4]
  Kd: > 30 µM (inactive)
[5]
  Kd: > 30 µM (inactive)
[6]
  Kd: > 30 µM (inactive)
[7]
  Kd: 6.17 µM (active)
[8]
  Kd: > 30 µM (inactive)

## CO[C@H]1C[C@@H]2CC[C@@H](C)[C@@](O)(O2)C(=O)C(=O)N2CCCC[C@H]2C(=O)O[C@H]([C@H](C)C[C@@H]2CC[C@@H](OC(=O)C(C)(CO)CO)[C@H](OC)C2)CC(=O)[C@H](C)/C=C(\C)[C@@H](O)[C@@H](OC)C(=O)[C@H](C)C[C@H](C)/C=C/C=C/C=C/1C [TEMSIROLIMUS]
[1]
  Kd: > 30 µM (inactive)
[2]
  Kd: > 30 µM (inactive)
[3]
  Kd: > 30 µM (inactive)
[4]
  Kd: > 30 µM (inactive)
[5]
  Kd: > 30 µM (inactive)
[6]
  Kd: > 30 µM (inactive)
[7]
  Kd: > 30 µM (inactive)
[8]
  Kd: > 30 µM (inactive)

## COc1cc2c(Nc3ccc(Cl)c(Cl)c3F)ncnc2cc1OC[C@@H]1C[C@@H]2CN(C)C[C@@H]2C1 [TESEVATINIB]
[1]
  Kd: > 30 µM (inactive)
[2]
  Kd: > 30 µM (inactive)
[3]
  Kd: > 30 µM (inactive)
[4]
  Kd: > 30 µM (inactive)
[5]
  Kd: > 30 µM (inactive)
[6]
  Kd: > 30 µM (inactive)
[7]
  Kd: > 30 µM (inactive)
[8]
  Kd: > 30 µM (inactive)

## C[C@@H](NC(=O)c1ncnc(N)c1Cl)c1ncc(C(=O)Nc2cc(C(F)(F)F)c(Cl)cn2)s1 [TOVORAFENIB]
[1]
  Kd: > 30 µM (inactive)
[2]
  Kd: > 30 µM (inactive)
[3]
  Kd: > 30 µM (inactive)
[4]
  Kd: > 30 µM (inactive)
[5]
  Kd: > 30 µM (inactive)
[6]
  Kd: > 30 µM (inactive)
[7]
  Kd: > 30 µM (inactive)
[8]
  Kd: > 30 µM (inactive)

## Cc1cc(Nc2ncnc3ccc(NC4=NC(C)(C)CO4)cc23)ccc1Oc1ccn2ncnc2c1 [TUCATINIB]
[1]
  Kd: > 30 µM (inactive)
[2]
  Kd: > 30 µM (inactive)
[3]
  Kd: > 30 µM (inactive)
[4]
  Kd: > 30 µM (inactive)
[5]
  Kd: > 30 µM (inactive)
[6]
  Kd: > 30 µM (inactive)
[7]
  Kd: > 30 µM (inactive)
[8]
  Kd: > 30 µM (inactive)
